According to patent US5591741A, “Fungicidal spiroheterocyclic derivatives” (American Cyanamid Company, priority 1993, dated 1997):

Legend:
Plasmopara viticola = test: Antisporulant activity against vine downy mildew (PVA); type: in vivo; details: vine leaves, antisporulant foliar spray, 600 ppm, 750 l/ha
Method: (a) Antisporulant activity against vine downy mildew (Plasmopara viticola; PVA) The test is a direct antisporulant one using a foliar spray. The lower surfaces of leaves of whole vine plants (cv Cabernet Sauvignon), approximately 8 cm high, are inoculated by spraying with an aqueous suspension containing 5×10^4 zoosporangia/ml. The inoculated plants are kept for 24 hours at 21° C. in a high humidity compartment, then 24 hours at glasshouse ambient temperature and humidity. Infected leaves are sprayed on their lower surfaces with a solution of active material in 1:1 water/acetone containing 0.04% "TWEEN 20" (Trade Mark; a polyoxyethylene sorbitan ester surfactant). Plants are treated using an automated sprayline with an atomising nozzle. The concentration of the compound is 600 ppm, and the spray volume is 750 l/ha. After spraying, the plants are returned to normal glasshouse conditions for 96 hours and are then transferred to the high humidity compartment for 24 hours to induce sporulation. Assessment is based on the percentage of the leaf area covered by sporulation compared with that on control leaves. The extent of disease control in all the above tests is expressed as a rating compared with either an untreated control or a diluent-sprayed-control, according to the criteria: […]

Alternaria solani = test: Activity against tomato early blight (AS); type: in vivo; details: Table VI; tomato seedlings, contact prophylactic foliar spray, 4 days
Method: b) Activity against tomato early blight (Alternaria solani; AS) This test measures the contact prophylactic activity of test compounds applied as a foliar spray. Tomato seedlings (cv Outdoor Girl) are grown to the stage at which the second true leaf is expanded. The plants are treated using an automated sprayline as described under (a). Test compounds are applied as solutions or suspensions in a mixture of acetone and water (50:50 v/v) containing 0.04% surfactant ("TWEEN 20"--Trade Mark). After drying the plants are kept for 24 hours in a glasshouse at 20° C. and 40% R.H., followed by inoculation of the leaf upper surfaces with a suspension of A. solani conidia containing 10^4 spores/ml. For 4 days after inoculation plants are kept moist in a humidity compartment at 21° C. Disease is assessed 4 days after inoculation, based on the percentage of leaf surface area covered by lesions when compared with control plants. The extent of disease control in all the above tests is expressed as a rating compared with either an untreated control or a diluent-sprayed-control, according to the criteria: […]

Botrytis cinerea = test: Direct protectant activity against broad bean grey mould (BCB); type: in vivo; details: direct protectant foliar spray, 600 ppm, 4 days
Method: (c) Direct protectant activity against broad bean grey mould (Botrytis cinerea; BCB) The test is a direct protectant foliar spray. The upper surfaces of leaves of broad bean plants with two leaf pairs (cv The Sutton) are sprayed with the test compound at a dosage of 600 ppm using an automated sprayline as described under (a). 24 hours after spraying the leaves are inoculated with an aqueous suspension containing 10^6 conidia/ml. For 4 days after inoculation plants are kept in a high humidity compartment at 22° C. Disease is assessed 4 days after inoculation, based on the percentage of leaf surface area covered by lesions. The extent of disease control in all the above tests is expressed as a rating compared with either an untreated control or a diluent-sprayed-control, according to the criteria: […]

Leptosphaeria nodorum = test: Activity against wheat leafspot (LN); type: in vivo; details: direct therapeutic foliar spray, 600 ppm, 6-8 days
Method: (d) Activity against wheat leafspot (Leptosphaeria nodorum; LN.) The test is a direct therapeutic foliar spray. Leaves of wheat plants (cv Norman), at the single leaf stage, are inoculated by spraying with an aqueous suspension containing 1.5×10^6 conidia/ml. The inoculated plants are kept for 24 hours in a high humidity compartment prior to treatment. The plants are sprayed with a solution of the test compound at a dosage of 600 ppm using an automated sprayline as described under (a). After drying, the plants are kept for 6-8 days at 22° C. and moderate humidity (70%). Assessment is based on the density of lesions per leaf compared with that on leaves of control plants. The extent of disease control in all the above tests is expressed as a rating compared with either an untreated control or a diluent-sprayed-control, according to the criteria: […]

[1] = test system: Erysiphe graminis f.sp. hordei; test: Activity against barley powdery mildew, direct therapeutic (EGT); type: in vivo; details: direct therapeutic foliar spray, 600 ppm, up to 7 days
Method: (e) Activity against barley powdery mildew (Erysiphe graminis f.sp. hordei; EGT) The test is a direct therapeutic foliar spray. Leaves of barley seedlings, (cv. Golden Promise) at the single leaf stage are inoculated by dusting with mildew conidia one day prior to treatment with the test compound. The inoculated plants are kept overnight at glasshouse ambient temperature (18° C.) and humidity (40%) prior to treatment. The plants are sprayed with the test compound at a dosage of 600 ppm using an automated sprayline as described under (a). After drying, plants are returned to a compartment at 18° C. and 40% humidity for up to 7 days. Assessment is based on the percentage of leaf area covered by sporulation compared with that on leaves of control plants. The extent of disease control in all the above tests is expressed as a rating compared with either an untreated control or a diluent-sprayed-control, according to the criteria: […]

[2] = test system: Erysiphe graminis f.sp. hordei; test: Direct protectant activity against barley powdery mildew (EGP); type: in vivo; details: direct protectant foliar spray, 8 days
Method: (f) Direct protectant activity against barley powdery mildew (Erysiphe graminis f.sp. hordei; EGP) The test is a direct protectant foliar spray. Leaves of barley seedlings (cv Golden Promise) at the single leaf stage are sprayed with the test compound as described under (a). After drying, the plants are kept for 24 hours in a glasshouse at 18° C. and 40% R.H. Then the plants are inoculated by dusting with mildew conidia and kept at 18° C. and 40% R.H. for 8 days. Assessment is based on the percentage of leaf area covered by sporulation compared with that on leaves of control plants. The extent of disease control in all the above tests is expressed as a rating compared with either an untreated control or a diluent-sprayed-control, according to the criteria: […]

Phytophthora infestans = type: in vivo; details: tomato, direct protectant foliar spray
[3] = test system: Pseudocercosporella herpotrichoides; test: Activity against wheat eyespot in-vitro (PHI); type: cell-based; details: 10 ppm, 10 days, 20° C., mycelial growth
Method: (h) Activity against wheat eyespot in-vitro (Pseudocercosporella herpotrichoides; pHI) This test measures the in vitro activity of compounds against the fungus causing wheat eyespot. The test compound is dissolved or suspended in acetone and is added into 4 ml aliquots of half strength Potato Dextrose Broth (PDB) dispended in 25-compartment petri dishes to give a final concentration of 10ppm. The fungal inoculum consists of mycelial fragments of P. herpotrichoides grown in half strength PDB in shaken flasks and added to the broth to provide 5×10^4 fragments/ml broth. Petri dishes are incubated at 20° C. for 10 days until the assessment of mycelial growth. The extent of disease control in all the above tests is expressed as a rating compared with either an untreated control or a diluent-sprayed-control, according to the criteria: […]

Rhizoctonia solani = test: Activity against Rhizoctonia in-vitro (RSI); type: cell-based; details: 10 ppm, 10 days, 20° C., mycelial growth
Method: (i) Activity against Rhizoctonia in-vitro (Rhizoctonia solani: RSI) This test measures the in-vitro activity of compounds against R. solani that causes stem and root rots. The test compound in acetone is added into 4 ml aliquots of half strength Potato Dextrose Broth dispensed in 25-compartment petri dishes to give final concentrations of 10 ppm. The fungal inoculum consists of mycelial fragments of R. solani growth in half strength PDB in shaken culture flasks and added to the broth to provide 5×10^4 fragments/ml broth. Petri dishes are incubated at 20° C. for 10 days until the assessment of mycelial growth. The extent of disease control in all the above tests is expressed as a rating compared with either an untreated control or a diluent-sprayed-control, according to the criteria: […]

Venturia inaequalis = test: Activity against apple scab in-vitro (VII); type: cell-based; details: 10 ppm, 10 days, 20° C., mycelial growth
Method: (j) Activity against apple scab in-vitro (Venturia inaequalis: VII) This test measures the in-vitro activity of compounds against V. inaequalis that causes apple scab. The test compound in acetone is added into 4 ml aliquots of half strength Potato Dextrose Broth dispensed in 25-compartment petri dishes to give final concentrations of 10 ppm. The fungal inoculum consists of mycelial fragments and spores of V. inaequalis grown on malt agar and added to the broth to provide 5×10^4 propagules/ml broth. Petri dishes are incubated at 20° C. for 10 days until the assessment of mycelial growth. The extent of disease control in all the above tests is expressed as a rating compared with either an untreated control or a diluent-sprayed-control, according to the criteria: […]

Pyricularia oryzae = type: in vivo; details: rice seedlings, direct therapeutic foliar spray, 600 ppm, 4-5 days

SMILES | disease control rating PVA (Plasmopara viticola) | disease control rating AS (Alternaria solani) | disease control rating BCB (Botrytis cinerea) | disease control rating LN (Leptosphaeria nodorum) | disease control rating EGT [1] | disease control rating EGP [2] | disease control rating PIP (Phytophthora infestans) | disease control rating PHI [3] | disease control rating RSI (Rhizoctonia solani) | disease control rating VII (Venturia inaequalis) | disease control rating PO (Pyricularia oryzae)
C1CCN(C2COC3(CCCCC3)C2)CC1 (stereo not drawn) [Compound 35] | 0 (less than 50% disease control) | 0 (less than 50% disease control) | 0 (less than 50% disease control) | 0 (less than 50% disease control) | 0 (less than 50% disease control) | 0 (less than 50% disease control) | 0 (less than 50% disease control) | 0 (less than 50% disease control) | 0 (less than 50% disease control) | 0 (less than 50% disease control) | 0 (less than 50% disease control)
CC(C)(C)C1CCC2(CC1)CC(N1CCCCCC1)CO2 (stereo not drawn) [Compound 21] | 0 (less than 50% disease control) | 0 (less than 50% disease control) | 2 (greater than 80% disease control) | 0 (less than 50% disease control) | 2 (greater than 80% disease control) | 2 (greater than 80% disease control) | 0 (less than 50% disease control) | 0 (less than 50% disease control) | 0 (less than 50% disease control) | 1 (about 50-80% disease control) | 0 (less than 50% disease control)
CCC(C)(C)C1CCC2(CC1)CC(N1CC(C)OC(C)C1)CO2 (stereo not drawn) [Compound 53] | 0 (less than 50% disease control) | 0 (less than 50% disease control) | 1 (about 50-80% disease control) | 0 (less than 50% disease control) | 2 (greater than 80% disease control) | 2 (greater than 80% disease control) | 0 (less than 50% disease control) | 1 (about 50-80% disease control) | 0 (less than 50% disease control) | 1 (about 50-80% disease control) | 0 (less than 50% disease control)
CC(C)(C)C1CCC2(CC1)CC(NC1CCC3CCCCC3C1)CO2 (stereo not drawn) [Compound 98] | 0 (less than 50% disease control) | 0 (less than 50% disease control) | 2 (greater than 80% disease control) | 0 (less than 50% disease control) | 2 (greater than 80% disease control) | 2 (greater than 80% disease control) | 2 (greater than 80% disease control) | 0 (less than 50% disease control) | 1 (about 50-80% disease control) | 2 (greater than 80% disease control) | 0 (less than 50% disease control)
CC(C)(C)C1CCC2(CC1)CC(N1CCCC3CCCCC31)CO2 (stereo not drawn) [Compound 116] | 0 (less than 50% disease control) | 0 (less than 50% disease control) | 1 (about 50-80% disease control) | 0 (less than 50% disease control) | 2 (greater than 80% disease control) | 2 (greater than 80% disease control) | 0 (less than 50% disease control) | 0 (less than 50% disease control) | 0 (less than 50% disease control) | 2 (greater than 80% disease control) | 0 (less than 50% disease control)
CCCN(C1COC2(CCC(C(C)(C)C)CC2)C1)C1CC2CCC1C2 (stereo not drawn) [Compound 130] | 0 (less than 50% disease control) | 0 (less than 50% disease control) | 0 (less than 50% disease control) | 0 (less than 50% disease control) | 2 (greater than 80% disease control) | 2 (greater than 80% disease control) | 2 (greater than 80% disease control) | 0 (less than 50% disease control) | 0 (less than 50% disease control) | 1 (about 50-80% disease control) | 0 (less than 50% disease control)
